Series [1] has as its system panel of cell lines, including the HCT116 p53 isogenic pair. On the set-up: method as in PMID 28062704. As to conditions: panel of cell lines incl. HCT116 p53 isogenic pair; cited from earlier work.
In series [2] the test system is p53 mutant CLL cells. On the set-up: method as in PMID 26312880. Particulars: cited from earlier work.
The test system of series [3] is 12 ovarian cancer cell lines. The series is described as follows: Colony formation assay, panel of 12 other ovarian cancer cell lines (mean). Here is the method: NIH-OVCAR3 cells were exposed to (A) VE-821 for 48 h, (B) carboplatin for 24 h or (C) rucaparib for 24 h. Media was replaced with drug free media for 21 days to allow colony formation. Data are the mean and standard deviation of at least three independent experiments. […] […] Data are pooled from 3 independent experiments per cell line.
(§1) Cells were plated into 6-well tissue culture dishes at low densities and allowed to adhere for 24 h before being treated for 24 h with carboplatin (0–50 µM) or rucaparib (0–30 µM), or 48 h with VE-821 (0–30 µM). DMSO concentration was kept constant at 0.5%, including no-drug control, for drugs dissolved in DMSO. Following treatment, the medium was removed and replaced with fresh drug-free medium to allow colony formation. The cells were fixed in methanol: acetic acid (3:1 v/v) and stained with 0.4% crystal violet. Colonies were counted and the % survival for each treatment was calculated from the relative plating efficiency of treated versus untreated controls.

Series [4] concerns M059J and M059J-Fus1 cells. On the set-up: method as in PMID 22576130. As to conditions: cited from earlier work.
Series [5] concerns NIH-OVCAR3 cells. The series is described as follows: cells. Here is the method: (§2) NIH-OVCAR3 cells were exposed to (A) VE-821 for 48 h, (B) carboplatin for 24 h or (C) rucaparib for 24 h. Media was replaced with drug free media for 21 days to allow colony formation. Data are the mean and standard deviation of at least three independent experiments. (D) Sensitivity of an additional 12 ovarian cancer cell lines to the three drugs was calculated in the same way and LC50 values were calculated. […] Data are pooled from 3 independent experiments per cell line.
as §1

The subject of series [6] is BRCA1 mutant HRR defective (HRD) cell lines (COV362 and UWB1.289). The series is described as follows: Colony formation assay, HRR defective cell lines. Here is the method: as §2, §1
Series [7] deals with NIH-OVCAR3 cells. The series is described as follows: Immunofluorescence based γH2AX-RAD51 foci assay. Type of series: cell-based, human. Particulars: 10 µM rucaparib, 48 h vs 0.5% DMSO. Here is the method: Figure 4 Assessment of HRR and NHEJ in the NIH-OVCAR3 cells. (A) Cells were exposed to 0.5% DMSO (control) or 10 µM rucaparib for 48 h before being fixed and stained as per the protocol outlined in the methods. After imaging, the number of γH2AX and RAD51 foci per nucleus was calculated using ImageJ software, data points represent number of foci in an individual nucleus. The fold change in number of foci per nuclei between control and 10 µM rucaparib was then calculated. (B) Cells were co-transfected with pDRGFP and pCBASceI plasmids and analysed for the presence of GFP-positive cells 48 h post-transfection. % HRR activity was calculated by normalizing to the untransfected control. […] (C) Cells were co-transfected with pimEJ5GFP and pCBASceI plasmids and analysed for the presence of GFP-positive cells 48 h post-transfection. % NHEJ activity was calculated by normalizing to the untransfected control. […] [* p < 0.05; ** p < 0.005; **** p < 0.0001 (unpaired t-test)].
HRR was assessed by immunofluorescence. Cells were treated for 48 h with 10 μM rucaparib with 0.5% DMSO concentration for the untreated and treated cells. […] The number of γH2AX and RAD51 foci in each cell was quantified using ImageJ software and data was plotted using GraphPad Prism (GraphPad, San Diego, CA, USA).

Series [8] relates to HRR competent (HRC) cell lines. The series is described as follows: Colony formation assay, HRR competent cell lines. Here is the method: as §2, §1
Series [9] deals with p53. Type of series: cell-based, human.
The target in series [10] is T1, ATR (Homo sapiens, UniProt Q13535).
T1 construct: NIH-OVCAR3 cells and 9 other ovarian cancer cell lines were exposed to 4NQO ± VE-821 as indicated for 1 hr before western blotting; endogenous in cells
The series is described as follows: ATR inhibition by western blot of pCHK1Ser345 after 4NQO, NIH-OVCAR3. The class given is cell-based. Here is the method:
(§3) (A) NIH-OVCAR3 cells and 9 other ovarian cancer cell lines were exposed to 4NQO ± VE-821 as indicated for 1 hr before western blotting. Chemiluminescence was quantified using Syngene software and expression of pCHK1Ser345 was normalised to vinculin expression. Western blot image is from a single representative experiment with pooled data from 3 independent experiments per cell line used to calculate the mean VE-821 IC50 and percentage inhibition at 1 µM VE-821. (B) Bar chart represents log-transformed read counts obtained from RNA-Seq data for each gene normalized to ACTB mRNA expression for NIH-OVCAR3 cells (black bars) and the mean mRNA expression of each gene across 12 cell lines (white bars) where each black dot represents one cell line. (C) Bar chart represents protein expression normalised to Ponceau-s staining calculated using ImageJ software in NIH-OVCAR3 cells (black bars) and the mean protein expression of each gene across 12 cell lines (white bars) where each black dot represents one cell line. Data are from a single experimental repeat. [PRKDC: DNA-PKcs, XRCC5: Ku80, XRCC6: Ku70]. […] Western blot of baseline protein expression in panel of ovarian cancer cell lines can be found at Figure S5.
(In western blotting, separated proteins are transferred to a membrane and probed.)

Series [11] relates to HCT116 p53 isogenic cell line pair. On the set-up: method as in PMID 30127241. As to conditions: cited from earlier work.
For series [12], the target named is T1, ATR. The series is described as follows: ATR inhibition by western blot of pCHK1Ser345 after 4NQO, 9 other ovarian cancer cell lines. The class given is cell-based. As to conditions: mean of 9 ovarian cell lines. Here is the method:
as §3

[13] abbreviates: Homo sapiens, 24 h, read-out: Rucaparib LC50 ± SD.
The mark [14] stands for this setting: ratio of LC50, colony formation.
Setting [15] is: Homo sapiens, 48 h, read-out: VE-821 LC50 ± SD.

Read-outs that look alike come from different tables or passages of the source.

T1 sequence (Q13535 whole entry): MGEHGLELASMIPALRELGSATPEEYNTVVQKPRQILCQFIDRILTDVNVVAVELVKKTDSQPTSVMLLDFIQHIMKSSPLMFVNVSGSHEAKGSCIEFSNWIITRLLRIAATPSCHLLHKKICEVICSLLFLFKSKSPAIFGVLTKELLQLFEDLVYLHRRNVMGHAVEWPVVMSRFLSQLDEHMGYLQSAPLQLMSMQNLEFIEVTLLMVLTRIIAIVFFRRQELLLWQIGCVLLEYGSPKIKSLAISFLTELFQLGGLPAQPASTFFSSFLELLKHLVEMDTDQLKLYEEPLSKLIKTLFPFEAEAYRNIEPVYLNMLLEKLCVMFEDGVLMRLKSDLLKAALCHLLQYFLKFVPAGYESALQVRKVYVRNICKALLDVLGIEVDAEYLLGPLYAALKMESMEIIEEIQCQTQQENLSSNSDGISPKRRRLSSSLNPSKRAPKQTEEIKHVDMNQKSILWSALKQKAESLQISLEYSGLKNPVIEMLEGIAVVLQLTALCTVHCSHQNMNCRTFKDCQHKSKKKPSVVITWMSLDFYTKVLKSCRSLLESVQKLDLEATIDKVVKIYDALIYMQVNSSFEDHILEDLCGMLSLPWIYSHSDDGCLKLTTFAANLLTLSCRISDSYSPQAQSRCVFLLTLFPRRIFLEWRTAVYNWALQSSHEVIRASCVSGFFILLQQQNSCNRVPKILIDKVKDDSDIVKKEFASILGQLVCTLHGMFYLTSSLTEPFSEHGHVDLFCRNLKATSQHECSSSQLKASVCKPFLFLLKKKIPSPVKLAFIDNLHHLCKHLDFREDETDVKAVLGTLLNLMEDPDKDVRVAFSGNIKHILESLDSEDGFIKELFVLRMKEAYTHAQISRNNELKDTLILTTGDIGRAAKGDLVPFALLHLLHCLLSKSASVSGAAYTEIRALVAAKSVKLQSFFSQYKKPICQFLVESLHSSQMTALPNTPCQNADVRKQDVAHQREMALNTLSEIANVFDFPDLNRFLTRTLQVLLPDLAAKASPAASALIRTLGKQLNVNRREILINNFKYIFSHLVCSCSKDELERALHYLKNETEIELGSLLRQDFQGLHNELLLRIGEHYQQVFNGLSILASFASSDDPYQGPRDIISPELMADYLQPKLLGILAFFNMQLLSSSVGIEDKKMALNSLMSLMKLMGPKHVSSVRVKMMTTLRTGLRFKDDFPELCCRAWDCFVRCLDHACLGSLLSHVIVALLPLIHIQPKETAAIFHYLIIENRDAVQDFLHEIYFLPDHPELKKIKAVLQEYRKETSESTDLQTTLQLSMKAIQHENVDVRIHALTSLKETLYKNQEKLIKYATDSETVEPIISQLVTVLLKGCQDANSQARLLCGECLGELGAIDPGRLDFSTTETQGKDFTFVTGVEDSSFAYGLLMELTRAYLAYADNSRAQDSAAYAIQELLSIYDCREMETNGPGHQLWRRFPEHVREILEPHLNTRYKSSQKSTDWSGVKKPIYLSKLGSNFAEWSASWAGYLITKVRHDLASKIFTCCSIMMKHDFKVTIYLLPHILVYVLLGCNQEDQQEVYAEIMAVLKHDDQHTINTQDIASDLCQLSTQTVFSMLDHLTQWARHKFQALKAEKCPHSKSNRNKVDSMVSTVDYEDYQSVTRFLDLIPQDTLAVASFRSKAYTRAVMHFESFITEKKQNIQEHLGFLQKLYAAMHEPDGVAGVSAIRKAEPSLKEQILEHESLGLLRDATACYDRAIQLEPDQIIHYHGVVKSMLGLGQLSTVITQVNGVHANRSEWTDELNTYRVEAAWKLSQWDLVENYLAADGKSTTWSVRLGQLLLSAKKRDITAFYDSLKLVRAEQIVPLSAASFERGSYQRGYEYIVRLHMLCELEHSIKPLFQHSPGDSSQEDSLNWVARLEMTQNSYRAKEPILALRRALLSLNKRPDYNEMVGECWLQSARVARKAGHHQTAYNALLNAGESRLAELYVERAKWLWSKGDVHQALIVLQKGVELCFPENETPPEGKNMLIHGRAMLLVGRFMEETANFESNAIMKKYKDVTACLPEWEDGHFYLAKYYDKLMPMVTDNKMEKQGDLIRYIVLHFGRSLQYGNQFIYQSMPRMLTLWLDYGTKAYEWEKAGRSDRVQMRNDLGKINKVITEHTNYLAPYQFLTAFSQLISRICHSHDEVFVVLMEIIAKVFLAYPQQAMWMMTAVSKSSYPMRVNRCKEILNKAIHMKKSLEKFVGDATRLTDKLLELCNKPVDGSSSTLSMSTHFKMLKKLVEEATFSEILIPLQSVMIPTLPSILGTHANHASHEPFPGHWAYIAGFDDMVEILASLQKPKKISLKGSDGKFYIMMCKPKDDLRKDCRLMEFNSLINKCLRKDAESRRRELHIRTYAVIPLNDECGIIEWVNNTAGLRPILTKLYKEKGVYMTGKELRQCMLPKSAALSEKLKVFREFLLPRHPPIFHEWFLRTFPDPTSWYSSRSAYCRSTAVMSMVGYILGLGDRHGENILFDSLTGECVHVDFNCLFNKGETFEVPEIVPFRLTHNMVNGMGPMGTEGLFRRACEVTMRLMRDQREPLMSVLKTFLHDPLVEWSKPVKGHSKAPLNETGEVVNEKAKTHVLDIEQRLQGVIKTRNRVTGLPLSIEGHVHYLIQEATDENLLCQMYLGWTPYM
T1 sequence (Q8WXE1 whole entry partner): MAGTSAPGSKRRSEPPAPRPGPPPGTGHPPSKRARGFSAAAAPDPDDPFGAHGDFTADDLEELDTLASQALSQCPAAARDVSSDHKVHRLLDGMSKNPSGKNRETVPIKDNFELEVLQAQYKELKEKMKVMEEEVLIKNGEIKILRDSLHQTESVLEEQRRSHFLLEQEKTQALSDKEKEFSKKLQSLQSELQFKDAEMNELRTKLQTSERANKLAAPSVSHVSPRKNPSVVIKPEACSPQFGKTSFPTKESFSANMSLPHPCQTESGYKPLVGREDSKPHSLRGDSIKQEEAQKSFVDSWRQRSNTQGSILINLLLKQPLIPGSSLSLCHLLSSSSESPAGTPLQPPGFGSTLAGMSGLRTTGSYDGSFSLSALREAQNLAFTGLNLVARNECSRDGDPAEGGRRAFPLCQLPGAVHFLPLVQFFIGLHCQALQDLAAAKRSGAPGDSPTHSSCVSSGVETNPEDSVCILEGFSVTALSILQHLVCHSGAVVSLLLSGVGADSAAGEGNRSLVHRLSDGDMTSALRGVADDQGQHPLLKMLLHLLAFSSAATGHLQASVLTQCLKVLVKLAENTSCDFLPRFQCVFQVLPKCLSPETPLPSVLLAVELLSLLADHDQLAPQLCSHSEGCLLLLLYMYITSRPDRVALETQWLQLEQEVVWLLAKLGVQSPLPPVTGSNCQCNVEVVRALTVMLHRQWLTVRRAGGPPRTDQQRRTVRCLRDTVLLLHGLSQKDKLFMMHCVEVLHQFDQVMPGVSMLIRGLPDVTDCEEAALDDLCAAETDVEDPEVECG

In the case of `C[C@@H]1COCCN1c1cc(C2([S@](C)(=N)=O)CC2)nc(-c2cc[nH]c3nccc2-3)n1` [AZD6738], the “Sensitivity in relation to p53 status” value in [1] is on record as “independent of p53 status”. For the same compound, in series [2], the “Cytotoxicity in relation to p53 status” value is on record as “selectively cytotoxic towards p53 mutant CLL cells”.

Take `COc1cccc2c1C(=O)c1c(O)c3c(c(O)c1C2=O)C[C@@](O)(C(=O)CO)C[C@@H]3O[C@H]1C[C@H](N)[C@H](O)[C@H](C)O1` [Doxorubicin, doxorubicin]: the CC50 came to 44.5 ± 15.5 nM in [3] (Homo sapiens, 24 h, read-out: Doxorubicin LC50 ± SD) and 55 ± 1.97 nM in [5] (Homo sapiens, OVCAR-3, read-out: Doxorubicin LC50 ± SD). Besides, in [3] (mean of the 12 ovarian cancer cell lines, 100 nM doxorubicin), the “mean percentage cell survival at 100 nM” value was ~ 12%. For the same compound, the “percentage cell survival at 100 nM” value in series [4] (M059J-Fus1 cells, 100 nM doxorubicin) is listed as ~ 30%; in series [5] (NIH-OVCAR3, 100 nM doxorubicin) it was ~ 17%. Also, the “Fold more sensitive, NHEJ-deficient M059J vs NHEJ-proficient M059J-Fus1 cells” value in [4] is recorded as 20 fold. Also, in [5] (100 nM doxorubicin), the “Fold higher percentage cell survival, NIH-OVCAR3 vs mean of the 12 ovarian cancer cell lines” value is listed as 1.4 fold.

With `CNCc1ccc(-c2[nH]c3cc(F)cc4c3c2CCNC4=O)cc1` [Rucaparib, rucaparib], the CC50 in series [6] (setting [13]) was determined as 280 ± 70 nM; in series [3] (setting [13]), 8800 ± 9580 nM; in [8] (setting [13]) it was 10500 ± 9610 nM; in [5] (Homo sapiens, OVCAR-3, read-out: Rucaparib LC50 ± SD), 410 ± 60 nM. For the same compound, in series [7], the RAD51 foci formation entry is given as “increase in RAD51 foci formation”. Also, in series [7], the γH2AX foci formation entry is reported as “induction in γH2AX foci”. In series [5] (setting [14]), the “Fold more sensitive, NIH-OVCAR3 compared to HRR competent (HRC) cell lines” value is 26 fold. In series [5] (setting [14]), the “Fold more sensitive, NIH-OVCAR3 compared to the 12 ovarian cancer cell lines” value turned out to be 21 fold.

Regarding `Nc1ccn([C@@H]2O[C@H](CO)[C@@H](O)C2(F)F)c(=O)n1` [Gemcitabine, gemcitabine], the Gemcitabine LC50 ± SD in series [3] was found to be 28.7 nM. For the same compound, the CC50 in series [5] (Homo sapiens, OVCAR-3, read-out: Gemcitabine LC50 ± SD) came out at 41.5 ± 1.2 nM.

On to `CC[C@@]1(O)C(=O)OCc2c1cc1n(c2=O)Cc2cc3c(CN(C)C)c(O)ccc3nc2-1` [Topotecan, topotecan], for which the CC50 in series [3] (Homo sapiens, 24 h, read-out: Topotecan LC50 ± SD) came to 15.6 ± 9.32 nM; in series [5] (Homo sapiens, OVCAR-3, read-out: Topotecan LC50 ± SD), 7.2 ± 0.36 nM.

Take `COc1ccc(C2=N[C@@H](c3ccc(Cl)cc3)[C@@H](c3ccc(Cl)cc3)N2C(=O)N2CCNC(=O)C2)c(OC(C)C)c1` [Nutlin-3]: the “Induction of MDM2 and p21 (indicators of p53 activation)” value in series [9] is “no induction of either MDM2 or p21”.

As a reminder, the IC50 is the point on the concentration scale where inhibition reaches its midpoint. As usually defined, the inhibition is the relative decrease from the control value, in per cent. For the compound `CS(=O)(=O)c1ccc(-c2cnc(N)c(C(=O)Nc3ccccc3)n2)cc1` [VE-821], the IC50 was 310 ± 270 nM in series [10] (4NQO ± VE-821 for 1 hr, western blot, normalised to vinculin, read-out: VE-821 IC50 ± SD (ATR inhibition, pCHK1Ser345)) and 380 ± 200 nM in series [12] (4NQO ± VE-821 for 1 hr, western blot, read-out: VE-821 IC50 ± SD (ATR inhibition, pCHK1Ser345)). Besides, the inhibition at 1 µM in series [10] (OVCAR-3, 1 μM VE-821, 4NQO, 1 hr, pCHK1Ser345, read-out: ATR Inhibition at 1 μM VE-821 ± SD) stood at 81 ± 5.29%; in series [12] (1 μM VE-821, 4NQO, 1 hr, pCHK1Ser345, read-out: ATR Inhibition at 1 μM VE-821 ± SD) it was 78.1 ± 13.4%. Moreover, in series [11], the “Difference in sensitivity to single agent between p53 isogenic cells” value was “no difference in sensitivity”. The CC50 in [6] (setting [15]) is 1010 ± 500 nM; in series [3] (setting [15]), 1580 ± 1120 nM; in series [8] (setting [15]), 1680 ± 1190 nM; in series [5] (Homo sapiens, OVCAR-3, read-out: VE-821 LC50 ± SD), 17900 ± 4560 nM. The “Fold more resistant, NIH-OVCAR3 compared to panel of 12 ovarian cancer cell lines” value in series [5] (setting [14]) stood at 11 fold.

As for `CC(=O)O[C@H]1C(=O)[C@@]2(C)[C@H]([C@H](OC(=O)c3ccccc3)[C@]3(O)C[C@H](OC(=O)[C@H](O)[C@@H](NC(=O)c4ccccc4)c4ccccc4)C(C)=C1C3(C)C)[C@]1(OC(C)=O)CO[C@@H]1C[C@@H]2O` [Paclitaxel, paclitaxel], the CC50 in [3] (Homo sapiens, 24 h, read-out: Paclitaxel LC50 ± SD) came to 3.37 ± 2.41 nM; in series [5] (Homo sapiens, OVCAR-3, read-out: Paclitaxel LC50 ± SD), 2.71 ± 0.08 nM.

`N.N.O=C([O-])C1(C(=O)[O-])CCC1.[Pt+2]` [Carboplatin]: the CC50 turned out to be 1520 ± 940 nM in series [6] (read-out: Carboplatin LC50 ± SD, HRD cell lines, 24 h exposure, colony formation); 6120 ± 6180 nM in series [3] (read-out: Carboplatin LC50 ± SD, mean of 12 ovarian cell lines, 24 h exposure, colony formation); 7020 ± 7090 nM in series [8] (read-out: Carboplatin LC50 ± SD, HRC cell lines, 24 h exposure, colony formation); 1290 ± 340 nM in [5] (read-out: Carboplatin LC50 ± SD, NIH-OVCAR3, 24 h exposure, then drug free media 21 days, colony formation). In addition, the “Fold more sensitive, NIH-OVCAR3 compared to the 12 ovarian cancer cell lines” value in series [5] (setting [14]) came to 5 fold.

The record behind these values is publication PMC7409137, “Characterisation of Ovarian Cancer Cell Line NIH-OVCAR3 and Implications of Genomic, Transcriptomic, Proteomic and Functional DNA Damage Response Biomarkers for Therapeutic Targeting” (Cancers, 2020).
